Measurements: the supplement of paper PMC10307832

Experiments:
Assay in all cases: relative viability (nuclei count vs DMSO), 5 days (fraction); higher = more cells survive
VX-11e + OSI-027 = compound: CC1=CN=C(N=C1C2=CNC(=C2)C(=O)N[C@H](CO)C3=CC(=CC=C3)Cl)NC4=C(C=C(C=C4)F)Cl [VX-11e] + COc1cccc2cc(-c3nc([C@H]4CC[C@H](C(=O)O)CC4)n4ncnc(N)c34)[nH]c12 [OSI-027] (partner 0.5 µM)
Outline: (§1)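 Cells from lung cancer lines were seeded into 1536-well plates and, one day later, dosed by pin tool. Treatments were either a single drug or a fixed dose of an anchor drug with five library-drug doses (not always all listed) in √10 steps. After 5 days, nuclei were stained in a one-step fixation (final 0.05% Triton X-100, 1% formaldehyde, 1 ug/ml Hoechst) and counted on 4× images, and relative viability is the treated-to-vehicle nuclei ratio, as the median of duplicate plates.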

VX-11e + Linsitinib = compound: CC1=CN=C(N=C1C2=CNC(=C2)C(=O)N[C@H](CO)C3=CC(=CC=C3)Cl)NC4=C(C=C(C=C4)F)Cl [VX-11e] + C[C@]1(O)C[C@@H](c2nc(-c3ccc4ccc(-c5ccccc5)nc4c3)c3c(N)nccn32)C1 [Linsitinib] (partner 1 µM)
Outline: as §1

VX-11e + Lapatinib = compound: CC1=CN=C(N=C1C2=CNC(=C2)C(=O)N[C@H](CO)C3=CC(=CC=C3)Cl)NC4=C(C=C(C=C4)F)Cl [VX-11e] + CS(=O)(=O)CCNCc1ccc(-c2ccc3ncnc(Nc4ccc(OCc5cccc(F)c5)c(Cl)c4)c3c2)o1 [Lapatinib] (partner 2 µM)
Outline: as §1

VX-11e + Trametinib = compound: CC1=CN=C(N=C1C2=CNC(=C2)C(=O)N[C@H](CO)C3=CC(=CC=C3)Cl)NC4=C(C=C(C=C4)F)Cl [VX-11e] + CC(=O)Nc1cccc(-n2c(=O)n(C3CC3)c(=O)c3c(Nc4ccc(I)cc4F)n(C)c(=O)c(C)c32)c1 [Trametinib] (partner 0.02 µM)
Outline: as §1

| Cell Line | relative viability (VX-11e + OSI-027; first compound 0.04 µM) | relative viability (VX-11e + OSI-027; first compound 0.1265 µM) | relative viability (VX-11e + OSI-027; first compound 0.4 µM) | relative viability (VX-11e + OSI-027; first compound 1.265 µM) | relative viability (VX-11e + OSI-027; first compound 4 µM) | relative viability (VX-11e + Linsitinib; first compound 0.04 µM) | relative viability (VX-11e + Linsitinib; first compound 0.1265 µM) | relative viability (VX-11e + Linsitinib; first compound 0.4 µM) | relative viability (VX-11e + Linsitinib; first compound 1.265 µM) | relative viability (VX-11e + Linsitinib; first compound 4 µM) | relative viability (VX-11e + Lapatinib; first compound 0.04 µM) | relative viability (VX-11e + Lapatinib; first compound 0.1265 µM) | relative viability (VX-11e + Lapatinib; first compound 0.4 µM) | relative viability (VX-11e + Lapatinib; first compound 1.265 µM) | relative viability (VX-11e + Lapatinib; first compound 4 µM) | relative viability (VX-11e + Trametinib; first compound 0.04 µM) | relative viability (VX-11e + Trametinib; first compound 0.1265 µM) | relative viability (VX-11e + Trametinib; first compound 0.4 µM) | relative viability (VX-11e + Trametinib; first compound 1.265 µM) | relative viability (VX-11e + Trametinib; first compound 4 µM) |
| --- | --- | --- | --- | --- | --- | --- | --- | --- | --- | --- | --- | --- | --- | --- | --- | --- | --- | --- | --- | --- |
| 201T | 0.728 | 0.678 | 0.823 | 0.603 | 0.645 | 1.01 | 1.02 | 1 | 0.867 | 0.966 | 0.948 | 0.988 | 0.943 | 0.816 | 0.942 | 0.737 | 0.72 | 0.705 | 0.706 | 0.689 |
| A549 | – | – | – | – | – | 0.548 | 0.485 | 0.448 | 0.31 | 0.169 | 0.898 | 0.903 | 0.832 | 0.211 | 0.135 | – | – | – | – | – |
| A-427 | 0.334 | 0.19 | 0.309 | 0.215 | 0.183 | 1.14 | 1.08 | 1.01 | 0.888 | 0.466 | 0.966 | 0.942 | 1.03 | 1.05 | 0.584 | 0.73 | 0.657 | 0.708 | 0.694 | 0.379 |
| ABC-1 | 0.309 | 0.426 | 0.374 | 0.339 | 0.278 | 0.814 | 0.792 | 0.597 | 0.531 | 0.538 | 1.03 | 1.06 | 0.899 | 1.22 | 1.53 | – | – | – | – | – |
| BEN | – | 0.274 | 0.302 | 0.285 | 0.242 | 1.04 | 0.701 | 0.923 | 0.54 | 0.783 | – | 0.637 | 0.888 | 0.45 | 0.728 | 1.08 | 0.845 | 1.06 | 0.798 | 1.1 |
| CAL-12T | 0.402 | 0.523 | 0.424 | 0.312 | 0.199 | 0.873 | 0.816 | 0.765 | 0.465 | 0.282 | – | – | 0.544 | 0.565 | 0.348 | 0.235 | 0.243 | 0.285 | 0.229 | 0.228 |
| COR-L23 | 0.733 | 0.591 | 0.579 | 0.347 | 0.185 | 1.04 | 0.905 | 0.816 | 0.508 | 0.248 | 1.3 | 1 | 0.806 | 0.634 | 0.398 | 0.481 | 0.441 | 0.323 | 0.328 | 0.188 |
| COR-L 105 | 0.541 | 0.802 | 0.552 | 0.326 | 0.254 | 1.04 | 0.946 | 0.568 | 0.571 | 0.267 | 0.354 | 0.324 | 0.396 | 0.355 | 0.381 | 0.425 | 0.459 | 0.369 | 0.423 | 0.403 |
| Calu-6 | – | – | – | – | – | 1.08 | 0.926 | 0.935 | 0.179 | 0.115 | 1.07 | 1.03 | 1.05 | 0.364 | 0.226 | – | – | – | – | – |
| ChaGo-K-1 | 0.546 | 0.533 | 0.395 | 0.527 | 0.439 | – | – | – | – | – | – | – | – | – | – | 0.928 | 0.909 | 0.842 | 0.881 | 0.869 |
| EBC-1 | – | – | – | – | – | 0.954 | 0.872 | 0.494 | 0.371 | 0.19 | 0.207 | 0.236 | 0.19 | 0.235 | 0.177 | – | – | – | – | – |
| EKVX | 0.692 | 0.661 | 0.703 | 0.667 | 0.223 | 1.01 | 0.971 | 1.05 | 0.87 | 0.559 | 0.205 | 0.184 | 0.189 | 0.108 | 0.144 | 0.385 | 0.353 | 0.293 | 0.395 | 0.207 |
| EMC-BAC-2 | 0.312 | 0.387 | 0.458 | 0.421 | 0.357 | 0.831 | 0.74 | 0.743 | 0.712 | 0.602 | 0.736 | 0.807 | 0.945 | 0.837 | 0.732 | 0.937 | 0.791 | 0.518 | 0.538 | 0.402 |
| EPLC-272H | 0.257 | 0.219 | – | 0.199 | 0.165 | 0.923 | 1.04 | 0.927 | 0.934 | 0.562 | 0.844 | 0.577 | 0.714 | 0.739 | 0.48 | 0.268 | 0.299 | – | 0.225 | 0.173 |
| H3255 | 0.52 | 0.601 | 0.559 | 0.637 | 0.407 | 1.01 | 0.815 | 0.971 | 0.956 | 0.879 | 0.245 | 0.222 | 0.286 | 0.281 | 0.232 | 0.678 | 0.635 | 0.425 | 0.443 | 0.33 |
| HARA | 0.269 | 0.372 | 0.279 | 0.186 | 0.0641 | 1.01 | 0.9 | 1.02 | 1.04 | 0.417 | 0.673 | 0.653 | 0.79 | 0.666 | 0.374 | 0.589 | 0.636 | 0.64 | 0.209 | 0.244 |
| HCC-15 | 0.616 | 0.624 | – | 0.227 | 0.153 | 0.868 | 0.815 | 0.746 | 0.497 | 0.217 | 0.949 | 0.849 | 0.38 | 0.565 | 0.288 | 0.354 | 0.345 | – | 0.297 | 0.246 |
| HCC-44 | 0.485 | 0.453 | 0.144 | 0.247 | 0.284 | 0.697 | 0.619 | 0.686 | 0.657 | 0.523 | 0.986 | 0.974 | 0.871 | 0.836 | 0.88 | 1.05 | 1.07 | 0.92 | 0.888 | 0.607 |
